Source: US9718879B2, “Methods of treating pain by inhibition of VGF activity” (IMPERIAL INNOVATIONS LTD., priority 2012, dated 2017)
Entries after “also recorded” stand apart in the source; their conditions may differ. No end group written: not given here.

How the values were obtained:
[1] = system: cultured bone marrow-derived macrophages; assay: TLQP-21-elicited intracellular Ca2+ increase in cultured macrophages (Fluo-4); type: cell-based; details: for increase in intracellular Ca2+ levels: 100 nM peptide, cultured macrophages, Fluo-4
Procedure: (§1) Cell images show the Fluo-4 fluorescence associated with different time points during the recording.
(§2) A possible explanation for the absence of a Ca2+ response from a second application of TLQP-21 is that there is a biological de-sensitisation occurring such as phosphorylation of the receptor. It is also possible that this could be due to depletion of Ca2+ in internal stores such as ER, however, this is less likely because the de-sensitisation occurs even with sufficient time (2 hours) to recover and replenish the Ca2+, and ATP treatment gave an increase in intracellular Ca2+ levels. Actually this de-sensitisation by TLQP-21 has also been observed in cerebellar granule cells.
These peptides were either commercially sourced or provided by Neusentis/Pfizer. The effects of VGF peptides on sensory neurons was analysed using whole-cell current-clamp recordings on cultured DRG neurons. Responses of cells to depolarising current pulses will be analysed before and after superfusion of peptides and their efficacy and potency established. The nociceptive phenotype of the cells was confirmed by superfusing capsaicin to the cells at the end of the recordings, and analysing the action potential and current threshold of the cells. Based on our pilot data with LQEQ-19, we expected that some of these peptides will increase the activity of nociceptive neurons. The activation of microglia and macrophage was studied on two parameters, intracellular Ca^2+ increase and P38 MAP kinase phosphorylation. The phosphorylation levels of P38 MAP kinase was investigated as shown before^20. Once we identified peptides capable of activating sensory neurons and/or microglia/macrophage, confirmed the specific effects using scrambled peptides.

paw withdrawal threshold = assay: Intraplantar (hind paw) injection of peptide-treated macrophages, Von Frey paw withdrawal threshold; type: in vivo, rat
Procedure: FIG. 6A-C Intraplantar injection of macrophages stimulated with TLQP-21 can evoke mechanical hypersensitivity, and anti-gC1qR antibody reverses mechanical hypersensitivity in partial sciatic nerve ligation (PSNL) model. a, 80,000 macrophages treated with 100 nM TLQP-21 (closed circle) and scrambled TLQP-21 (open circle) for 24 hours have been intraplantarly injected into 3 weeks old male rats. Mechanical sensitivity was examined by electrical Von Frey test. […] C, Time course of paw withdrawal thresholds to Von Frey mechanical stimulation on an left hind paw of PSNL model rats. The left sciatic nerve was exposed, tied with non-absorbable silk thread, and wrapped loosely with a oxidized regenerated cellulose previously soaked in 200 μl of PBS (open triangle) or PBS containing 25 μg of anti-gC1qR (closed circle) or control antibodies (open circle). […] Mean±s.e.m. *P<0.05 vs controls.
Macrophages were treated with either 100 nM TLQP-21 or 100 nM scrambled TLQP-21 for 24 hours in culture. Following wash with PBS, macrophages (35,000 cells in 50 μl) were injected into the left hind paw. Ipsilateral paw withdrawal latency to Von Frey mechanical stimulation was measured at 1, 2, and 3 days after injection (n=9).
We hypothesised that macrophages stimulated by TLQP-21 affects sensory neurons and alter the mechanical sensitivity. We tested this hypothesis by measuring paw withdrawal thresholds in normal rats after hind paw injection of cultured macrophages that had been pre-treated with either TLQP-21 or ScrTLQP-21 for 24 hours. […] This effect lasted for 48 hours after injection. […] We then examined if in vivo application of the neutralising gC1qR antibody can prevent or delay development of neuropathic pain in PSNL model rats. The gC1qR antibody was applied to the site next to nerve ligation, in a cellulose membrane soaked form.

gC1qR = biological target: T1, gC1qR (Rattus norvegicus, UniProt O35796); assay: Receptor identification by chemical cross-linking / monomeric avidin column and LC-MS/MS; type: binding; details: rat brain / spinal cord membrane fractions; ~30 kDa band identified by LC-MS/MS
T1 construct: from tissue; host or cells: membrane fractions of rat brain (P4) and of 6 weeks old rat brain and spinal cord
T1 sequence (O35796 72-279): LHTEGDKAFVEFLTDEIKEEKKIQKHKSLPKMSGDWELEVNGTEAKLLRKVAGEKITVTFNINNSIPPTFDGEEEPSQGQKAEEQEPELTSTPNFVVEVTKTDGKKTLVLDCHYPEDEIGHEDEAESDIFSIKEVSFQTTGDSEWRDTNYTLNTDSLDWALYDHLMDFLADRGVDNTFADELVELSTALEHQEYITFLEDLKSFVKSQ
Procedure: FIG. 3A-F gC1qR is the receptor for TLQP-21. a, Biotinylated TLQP-21 was conjugated to Sulfo-EMCS cross-linker, and applied to membrane fractions of 6 weeks old rat brain and spinal cord for cross-linking (boric acid buffer, pH 8, with 150 mM NaCl, 3 hours incubation on ice). The reaction was terminated using 50 mM Tris buffer, and samples were ethanol precipitated and resolved using Tricine-PAGE and visualised by Western blot analysis by streptavidin-horse radish peroxidase. […] C, The ˜30 kDa band was analysed by LC-MS/MS Orbitrap following trypsinisation.
Ccl11 has been linked to inflammation^23, while Cxcl9 is known as a natural antagonist to Ccl11 receptor CCR3^24. […] The membrane fractions of rat brain was incubated with the crosslinker-conjugated TLQP-21, and analysed by Tricine-PAGE and Western blotting using Streptavidin-HRP for the biotin tag on TLQP-21. […] The membrane fraction of rat brain was applied to a TLQP-21 attached column, and the elutions were analysed on SDS-PAGE and silver staining for direct comparison to the negative control (without TLQP-21). […] The ˜30 kDa bands from both gels were cut out, trypsinised and analysed using LC-MS/MS Orbitrap. […]
To elucidate the identity of the ˜30 kDa protein, which were apparent in two different experiments, the protein band from the monomeric avidin experiment was analysed using LC-MS/MS Orbitrap. […]

[2] = system: chemokines Ccl11 and Cxcl9 in microglia; assay: PCR array of chemokine expression in microglia upon TLQP-21 stimulation; type: cell-based
cultured brain microglia = assay: Intracellular Ca2+ increase in cultured brain microglia; type: cell-based, rat; details: 100 nM
Procedure: as §1, §2
Ccl11 has been linked to inflammation^23, while Cxcl9 is known as a natural antagonist to Ccl11 receptor CCR3^24. We then used Sulfo-EMCS-conjugated TLQP-21 to purify and identify receptor(s) for TLQP-21. […] The membrane fractions of rat brain was incubated with the crosslinker-conjugated TLQP-21, and analysed by Tricine-PAGE and Western blotting using Streptavidin-HRP for the biotin tag on TLQP-21. […] The membrane fraction of rat brain was applied to a TLQP-21 attached column, and the elutions were analysed on SDS-PAGE and silver staining for direct comparison to the negative control (without TLQP-21). […] The ˜30 kDa bands from both gels were cut out, trypsinised and analysed using LC-MS/MS Orbitrap.

pain behaviour = details: in vivo; cited from earlier work
[3] = system: ipsilateral hind limb mechanical sensitivity; assay: Intraplantar injection of LQEQ-19, sensitivity to mechanical stimuli; type: in vivo, rat; details: 275 microgram
Source text: (§3) On the other hand, another VGF-derived peptide LQEQ-19 seems to have a direct role on DRG neurons. […] In summary, there are at least three active VGF peptides involved in pain pathways, i.e., TLQP-62, TLQP-21 and LQEQ-19, and four types of cells, namely, spinal microglia, macrophage, nociceptive DRG neurons, and dorsal horn neurons, which respond to these peptides. In this project we will focus on the putative role of VGF peptides in regulating the activity/excitability of DRG neurons and the novel VGF-induced signaling pathway in microglia/macrophage.

[4] = system: p38 MAP kinase in spinal microglia; details: mice injected intrathecally; cited from earlier work
[5] = system: nociceptors (C-fibre component of compound action potentials in dorsal roots); assay: Compound action potential recordings in dorsal roots after application to DRG; details: application of LQEQ-19 to DRG, in vitro
Source text: (A) Typical average trace of 12 compound action potential recordings. The record was divided into 3 components according to the conduction velocities of Aβ fibres (6.2 m/s-2.1 m/s), Ad fibres (2.1 m/s-0.8 m/s) and C fibres (0.8 m/s-0.1 m/s) fibres. (B) Maximum amplitudes of Aβ, Ad and C components of compound action potentials. (C) Area under the curve of Aβ, Ad and C compound action potential. Bold line on the X axis indicates LQEQ-19 application
as §3

[6] = system: p38 MAP kinase in spinal microglia and BV-2 microglial cell line; details: cited from earlier work
spinal cord slices = details: cited from earlier work
[7] = system: mechanical and cold sensitivity; details: intrathecal application to rats; cited from earlier work
hippocampal neurons = details: cited from earlier work

cross-linker-conjugated TLQP-21: TLQP-21 with N-terminal biotin and extra C-terminal cysteine, conjugated to Sulfo-EMCS cross-linker (TLQPPASSRRRHFHHALPPARC; cyclised or stapled)
increase in intracellular Ca2+ levels [1]: able to induce an increase in intracellular Ca2+ levels similar to the wild type TLQP-21

Thr-Leu-Gln-Pro-Pro-Ala-Ser-Ser-Arg-Arg-Arg-His-Phe-His-His-Ala-Leu-Pro-Pro-Ala-Arg [TLQP-21]
duration of the effect on paw withdrawal threshold after injection (paw withdrawal threshold; injection of macrophages stimulated by TLQP-21): 48 h
tactile allodynia (paw withdrawal threshold; macrophages treated with 100 nM peptide 24 hours, 35,000 cells in 50 μl into left hind paw, 1, 2, 3 days, n=9): produced tactile allodynia
paw withdrawal threshold (paw withdrawal threshold; macrophages treated with 100 nM peptide for 24 hours, 80,000 cells injected intraplantarly, Von Frey): caused reduction of paw withdrawal thresholds at 24 and 48 hours after injection; also recorded: decreased markedly
binding to the receptor gC1qR (gC1qR): co-purified with TLQP-21; also recorded: binds to the receptor gC1qR
de-sensitisation to subsequent TLQP-21 stimulation ([1]; 100 nM TLQP-21, macrophages, ATP response not desensitised): densensitises macrophage to further TLQP-21 stimulation; also recorded: induced de-sensitisation to subsequent TLQP-21 treatments
increase in intracellular Ca2+ levels [1]: elicits an increase in intracellular Ca2+ levels; also recorded: drives an increase in intracellular Ca2+; also recorded: causes intracellular Ca^2+ increase; also recorded: caused transient increase in intracellular Ca2+ levels
intracellular Ca2+ increase when extracellular Ca2+ is depleted ([1]; macrophages, extracellular Ca2+ depleted): still observed
Ccl11 upregulated [2]: 2.78 fold
Cxcl9 downregulated [2]: 2.28 fold
increase in intracellular Ca2+ (cultured brain microglia): causes an increase in intracellular Ca2+; also recorded: responded to TLQP-21 similarly to macrophages

LQEQEELENYIEHVLLHRP [VGF-derived peptide]
pain behaviour in the formalin test (pain behaviour): enhances pain behaviour
time of development of hypersensitivity after injection [3]: 10 min
hypersensitivity to mechanical stimuli ([3]; ipsilateral hind limb, p≦0.001 vs vehicle): associated with a hypersensitivity to mechanical stimuli; also recorded: causes a mechanical hypersensitivity in vivo
phosphorylated p38 MAP kinase in spinal microglia [4]: increase of phosphorylated p38 MAP kinase
C-fibre component of compound action potentials (amplitude, area under the curve); sensitisation of nociceptors [5]: sensitises nociceptors in vitro; also recorded: significantly increases both the amplitude and the area under the curve
p38 MAP kinase phosphorylation [6]: causes P38 MAP kinase phosphorylation; also recorded: induces p38 MAP kinase phosphorylation

B1: Thr-Leu-Gln-Pro-Pro-Ala-Ser-Ser-Arg-Arg-Arg-His-Phe-His-His-Ala-Leu-Pro-Pro-Ala-Arg-His-His-Pro-Asp-Leu-Glu-Ala-Gln-Ala-Arg-Arg-Ala-Gln-Glu-Glu-Ala-Asp-Ala-Glu-Glu-Arg-Arg-Leu-Gln-Glu-Gln-Glu-Glu-Leu- … (peptide)
chain: TLQPPASSRRRHFHHALPPARHHPDLEAQARRAQEEADAEERRLQEQEELENYIEHVLLHRP
modifications: TLQP-62 peptide from VGF
notes: VGF-derived peptide
frequency of spontaneous excitatory post synaptic currents (spinal cord slices): increase in the frequency of spontaneous excitatory post synaptic currents
pain behaviour (mechanical and cold allodynia) [7]: induces pain behaviour (cold and mechanical hypersensitivity); also recorded: long-lasting mechanical and cold behavioural allodynia
synaptic activity (hippocampal neurons): increase synaptic activity
